# Biological target: hMAT2A (Homo sapiens (Human), UniProt P31153)
# Assay: Phosphate Sensor Fluorescence Assay (MAT2A enzyme inhibition)
# Type: biochemical
# Conditions: L-methionine 500 uM, ATP 500 uM, class symbols
# In short: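 Recombinant MAT2A preincubated 15 min at room temperature with compound, then reacted 1 h at room temperature with 500 uM L-methionine and 500 uM ATP in Tris pH 7.5 buffer containing PNP/7-MEG.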
# Sequence of hMAT2A (P31153 whole entry): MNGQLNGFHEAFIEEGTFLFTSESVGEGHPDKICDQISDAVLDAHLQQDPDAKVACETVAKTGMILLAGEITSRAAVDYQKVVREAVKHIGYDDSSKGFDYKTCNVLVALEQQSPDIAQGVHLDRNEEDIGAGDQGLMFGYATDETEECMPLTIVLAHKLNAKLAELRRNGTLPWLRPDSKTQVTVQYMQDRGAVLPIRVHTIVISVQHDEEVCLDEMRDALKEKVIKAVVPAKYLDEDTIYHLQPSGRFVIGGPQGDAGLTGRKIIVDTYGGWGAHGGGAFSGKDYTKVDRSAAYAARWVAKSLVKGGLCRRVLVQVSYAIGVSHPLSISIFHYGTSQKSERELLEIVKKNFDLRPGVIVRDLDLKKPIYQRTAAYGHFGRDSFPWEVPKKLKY
row,Compound,IC50
1,CN(C)c1nc(=O)n(-c2cccc(NS(=O)(=O)C3(C)CC3)c2)c2cc(Cl)ccc12 [Example 211],500 to 1000 nM
2,"CCOC(=O)c1ccc2c(=O)[nH]c(=O)n(-c3ccccc3)c2c1 [Example 213, ethyl 2,4-dioxo-1-phenyl-1,3-dihydro-quinazoline-7-carboxylate]",1000 to 10000 nM
3,"CNc1nc(=O)n(-c2ccn[nH]2)c2cc(Cl)ccc12 [Example 214, 7-chloro-4-(methylamino)-1-pyrazol-5-ylhydroquinazolin-2-one]",< 200 nM
4,"C[C@@]1(O)CCN(c2nc(=O)n(-c3ccccc3)c3cc(Cl)ccc23)C1 [Example 217, 4-((3R)-3-hydroxy-3-methylpyrrolidin-1-yl)-7-chloro-1-phenylhydroquinazolin-2-one]",200 to 500 nM
5,"CNc1nc(=O)n(-c2ccccc2Cl)c2cc(Cl)ccc12 [Example 218, 7-chloro-1-(2-chlorophenyl)-4-(methylamino)quinazolin-2(1H)-one]",< 200 nM
6,"CNc1nc(=O)n(-c2ccccc2C#N)c2cc(Cl)ccc12 [Example 219, 2-(7-chloro-4-(methylamino)-2-oxo-quinazolin-1(2H)-yl)benzonitrile]",200 to 500 nM
7,"CN(C)C(=O)CN(C)c1nc(=O)n(-c2ccccc2)c2cc(Cl)ccc12 [Example 220, 2-((7-chloro-2-oxo-1-phenyl-1,2-dihydroquinazolin-4-yl)(methyl)amino)-N,N-dimethylacetamide]",1000 to 10000 nM
8,"CNC(=O)CN(C)c1nc(=O)n(-c2ccccc2)c2cc(Cl)ccc12 [Example 221, 2-((7-chloro-2-oxo-1-phenyl-1,2-dihydroquinazolin-4-yl)(methyl)amino)-,N-methylacetamide]",1000 to 10000 nM
9,"O=c1nc(N2CC3CC3C2)c2ccc(Cl)cc2n1-c1ccccc1 (stereo not drawn) [Example 222, 4-(3-azabicyclo[3.1.0]hex-3-yl)-7-chloro-1-phenylhydroquinazolin-2-one]",< 200 nM
10,"CC1CCN1c1nc(=O)n(-c2ccccc2)c2cc(Cl)ccc12 (stereo not drawn) [Example 223, 7-chloro-4-(2-methylazetidin-1-yl)-1-phenylhydroquinazolin-2-one]",< 200 nM
11,"CNc1nc(=O)n(-c2ccccc2Br)c2cc(Cl)ccc12 [Example 225, 1-(2-bromophenyl)-7-chloro-4-(methylamino)quinazolin-2-one]",< 200 nM
12,"CNc1nc(=O)n(-c2ccccc2OC)c2cc(Cl)ccc12 [Example 226, 7-chloro-1-(2-methoxyphenyl)-4-(methylamino)hydroquinazolin-2-one]",< 200 nM
13,"CN(C)c1nc(=O)n(-c2cccc(CCCc3ccccc3)c2)c2cc(Cl)ccc12 [Example 227, 4-(dimethylamino)-7-chloro-1-[3-(3-phenylpropyl)phenyl]hydroquinazolin-2-one]",< 200 nM
14,"COC1CCN(c2nc(=O)n(-c3ccccc3)c3cc(Cl)ccc23)C1 (stereo not drawn) [Example 230, 7-chloro-4-(3-methoxypyrrolidin-1-yl)-1-phenylquinazolin-2(1H)-one]",< 200 nM
15,"CN(C)C(=O)CNc1nc(=O)n(-c2ccccc2)c2cc(Cl)ccc12 [Example 231, 2-[(7-chloro-2-oxo-1-phenyl-1,2-dihydroquinazolin-4-yl)amino]-N,N-dimethylacetamide]",1000 to 10000 nM
16,"O=c1nc(NCC2COC2)c2ccc(Cl)cc2n1-c1ccccc1 [Example 232, 7-chloro-4-[(oxetan-3-ylmethyl)amino]-1-phenylhydroquinazolin-2-one]",< 200 nM
17,"Cn1ccc(CNc2nc(=O)n(-c3ccccc3)c3cc(Cl)ccc23)n1 [Example 233, 7-chloro-4-1{[(1-methylpyrazol-3-yl)-methyl]amino}-1-phenylhydro-quinazolin-2-one]",< 200 nM

row,Compound,IC50
1,"CN(Cc1ccncc1)c1nc(=O)n(-c2ccccc2)c2cc(Cl)ccc12 [Example 234, 7-chloro-4-[methyl(pyridin-4-ylmethyl)-amino]-1-phenylhydroquinazolin-2-one]",< 200 nM
2,"CN(Cc1cccnc1)c1nc(=O)n(-c2ccccc2)c2cc(Cl)ccc12 [Example 235, 7-chloro-4-[methyl(pyridin-3-ylmethyl)-amino]-1-phenylhydroquinazolin-2-one]",< 200 nM
3,"CN(CC(F)(F)F)c1nc(=O)n(-c2ccccc2)c2cc(Cl)ccc12 [Example 237, 7-chloro-4-[methyl(2,2,2-trifluoroethyl)-amino]-1-phenylhydroquinazolin-2-one]",< 200 nM
4,"CC1(C)CCN(c2nc(=O)n(-c3ccccc3)c3cc(Cl)ccc23)C1 [Example 238, 4-(3,3-dimethylpyrrolidin-1-yl)-7-chloro-1-phenylhydroquinazolin-2-one]",< 200 nM
5,"O=c1nc(N2CC[C@@H](O)C2)c2ccc(Cl)cc2n1-c1ccccc1 [Example 239, 4-((3R)-3-hydroxypyrrolidinyl)-7-chloro-1-phenylhydroquinazolin-2-one]",< 200 nM
6,"NC(=O)[C@@H]1CCCN1c1nc(=O)n(-c2ccccc2)c2cc(Cl)ccc12 [Example 240, (2S)-1-(7-chloro-2-oxo-1-phenylhydro-quinazolin-4-yl)pyrrolidine-2-carboxamide]",1000 to 10000 nM
7,"NC(=O)[C@H]1CCCN1c1nc(=O)n(-c2ccccc2)c2cc(Cl)ccc12 [Example 241, (2R)-1-(7-chloro-2-oxo-1-phenylhydro-quinazolin-4-yl)pyrrolidine-2-carboxamide]",1000 to 10000 nM
8,"Cc1nc(=O)n(-c2ccccc2)c2cc(Cl)ccc12 [Example 242, 7-chloro-4-methyl-1-phenylhydro-quinazolin-2-one]",500 to 1000 nM
9,"CN(C)c1nc(=O)n(-c2ccccc2Cl)c2nc(C(F)(F)F)ccc12 [Example 244, 1-(2-chlorophenyl)-4-(dimethylamino)-7-(trifluoromethyl)pyrido[2,3-d]-pyrimidin-2(1H)-one]",< 200 nM
10,"O=c1nc(NC2CC3(CCC3)C2)c2ccc(C(F)(F)F)nc2n1-c1ccccc1Cl [Example 245, 1-(2-chlorophenyl)-4-(spiro[3.3]heptan-2-ylamino)-7-(trifluoromethyl)pyrido-[2,3-d]pyrimidin-2(1H)-one]",< 200 nM
11,O=c1nc(NCC2CC2)c2ccc(C(F)(F)F)nc2n1-c1ccccc1Cl [Example 246],< 200 nM
12,"O=c1nc(NCCCO)c2ccc(C(F)(F)F)nc2n1-c1ccccc1Cl [Example 247, 1-(2-chlorophenyl)-4-[(3-hydroxy-propyl)amino]-7-(trifluoromethyl)-pyrido[2,3-d]pyrimidin-2(1H)-one]",< 200 nM
13,"COCCCNc1nc(=O)n(-c2ccccc2Cl)c2nc(C(F)(F)F)ccc12 [Example 248, 1-(2-chlorophenyl)-4-[(3-methoxy-propyl)amino]-7-(trifluoromethyl)-pyrido[2,3-d]pyrimidin-2(1H)-one]",< 200 nM
14,"O=c1nc(N2CC[C@@H](O)C2)c2ccc(Cl)cc2n1-c1ccc2nccn2c1 [Example 250, 4-((3R)-3-hydroxypyrrolidin-1-yl)-7-chloro-1-(4-hydroimidazo[1,2-a]pyridin-6-yl)-hydroquinazolin-2-one]",500 to 1000 nM
15,"CNc1nc(=O)n(-c2ccc3nccn3c2)c2cc(Cl)ccc12 [Example 251, 7-chloro-1-(4-hydroimidazo[1,2-a]-pyridin-6-yl)-4-(methylamino)hydro-quinazolin-2-one]",1000 to 10000 nM
16,"O=c1[nH]c(=O)n(-c2cccc3[nH]ncc23)c2cc(Cl)ccc12 [Example 254, 1-(1H-indazol-4-yl)-7-chloro-1,3-dihydroquinazoline-2,4-dione]",< 200 nM
17,"O=c1nc(Nc2ccccn2)c2ccc(C(F)(F)F)nc2n1-c1ccccc1Cl [Example 256, 1-(2-chlorophenyl)-4-(2-pyridylamino)-7-(trifluoromethyl)pyrido[2,3-d]-pyrimidin-2(1H)-one]",< 200 nM

# Same assay, conditions: L-methionine 500 uM, ATP 500 uM, numeric bound
row,Compound,IC50
1,"O=c1[nH]c(=O)n(-c2nccc(O)n2)c2cc(Cl)ccc12 [Example 210, 7-chloro-1-(4-hydroxypyrimidin-2-yl)-1,3-dihydroquinazoline-2,4-dione]",> 10000 nM
2,"O=c1[nH]c(=O)n(-c2ccccc2)c2cc(CO)ccc12 [Example 212, 7-(hydroxymethyl)-1-phenyl-1,3-dihydroquinazoline-2,4-dione]",> 10000 nM
3,"Cn1ccnc1-n1c(=O)[nH]c(=O)c2ccc(Cl)cc21 [Example 215, 7-chloro-1-(1-methylimidazol-2-yl)-1,3-dihydroquinazoline-2,4-dione]",> 10000 nM
4,"O=C(O)[C@H]1CCCN1c1nc(=O)n(-c2ccccc2)c2cc(Cl)ccc12 [Example 224, (2R)-1-(7-chloro-2-oxo-1-phenylhydro-quinazolin-4-yl)pyrrolidine-2-carboxylic acid]",> 10000 nM
5,"CN(C)c1nc(=O)n(-c2ccccc2)c2cc(-c3cscn3)ccc12 [Example 228, 4-(dimethylamino)-1-phenyl-7-(1,3-thiazol-4-yl)hydroquinazolin-2-one]",> 10000 nM
6,"O=c1[nH]c(=O)n(-c2ccc(O)cc2)c2cc(Cl)ccc12 [Example 229, 7-chloro-1-(4-hydroxyphenyl)-1,3-dihydroquinazoline-2,4-dione]",> 10000 nM
7,"CN(Cc1ccccn1)c1nc(=O)n(-c2ccccc2)c2cc(Cl)ccc12 [Example 236, 7-chloro-4-[methyl(pyridin-2-ylmethyl)-amino]-1-phenylhydroquinazolin-2-one]",> 10000 nM
8,"CNc1nc(=O)n(-c2ccccc2)c2cc(Cl)nnc12 [Example 243, 3-chloro-8-(methylamino)-5-phenyl-5-hydropyrimidino[5,4-c]pyridazin-6-one]",> 10000 nM
9,"O=c1nc(NCC(F)F)c2ccc(Cl)cc2n1-c1ccc2nccn2c1 [Example 249, 4-[(2,2-difluoroethyl)amino]-7-chloro-1-(4-hydroimidazo[1,2-a]pyridin-6-yl)-hydroquinazolin-2-one]",> 10000 nM
10,"Nc1nc(=O)n(-c2ccc3nccn3c2)c2cc(Cl)ccc12 [Example 252, 4-amino-7-chloro-1-(4-hydroimidazo-[1,2-a]pyridin-6-yl)hydroquinazolin-2-one]",> 10000 nM
11,"O=c1[nH]c(=O)n(-c2nc3ccccc3s2)c2cc(Cl)ccc12 [Example 253, 1-benzothiazol-2-yl-7-chloro-1,3-dihydroquinazoline-2,4-dione]",> 10000 nM

# Source: patent publication US11046691B1 (IDEAYA BIOSCIENCES, INC., priority 2018, dated 2021)
